Measured values: patent US7645763B2, “8-[3-amino-piperidin-1-yl]-xanthines, their preparation and their use as pharmaceutical composition” (Boehringer Ingelheim Pharma GmbH & Co. KG, priority 2004, dated 2010)

Target: T1, DPP-IV (Homo sapiens, UniProt P27487)
T1 construct: an extract of the human colon carcinoma cell line Caco-2 is used as the DPP IV source; endogenous in cells; host or cells: Caco-2 (human colon carcinoma), differentiated to induce DPP-IV expression; Nonidet-P40 solubilized extract
T1 sequence (P27487 whole entry): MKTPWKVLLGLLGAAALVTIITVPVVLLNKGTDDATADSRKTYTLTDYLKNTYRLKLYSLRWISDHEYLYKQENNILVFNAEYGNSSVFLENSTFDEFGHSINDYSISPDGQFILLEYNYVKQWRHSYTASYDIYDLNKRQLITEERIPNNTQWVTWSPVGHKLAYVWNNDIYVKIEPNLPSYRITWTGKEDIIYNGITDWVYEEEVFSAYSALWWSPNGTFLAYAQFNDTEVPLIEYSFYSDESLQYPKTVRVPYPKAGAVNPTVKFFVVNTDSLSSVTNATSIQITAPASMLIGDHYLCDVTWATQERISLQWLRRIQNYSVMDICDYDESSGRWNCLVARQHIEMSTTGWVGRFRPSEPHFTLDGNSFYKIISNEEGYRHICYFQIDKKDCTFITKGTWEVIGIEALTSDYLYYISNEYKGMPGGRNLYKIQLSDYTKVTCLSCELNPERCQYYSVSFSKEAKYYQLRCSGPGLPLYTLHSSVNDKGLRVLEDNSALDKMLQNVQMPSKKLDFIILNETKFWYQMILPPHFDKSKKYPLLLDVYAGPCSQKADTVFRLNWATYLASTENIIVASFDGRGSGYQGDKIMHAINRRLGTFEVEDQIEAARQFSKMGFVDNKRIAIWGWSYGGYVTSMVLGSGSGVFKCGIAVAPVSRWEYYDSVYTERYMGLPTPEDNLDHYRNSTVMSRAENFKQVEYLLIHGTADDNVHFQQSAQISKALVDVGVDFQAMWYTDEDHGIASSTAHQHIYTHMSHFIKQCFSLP
Assay: DPP-IV assay with Caco-2 cell extract as DPP IV source
Format: biochemical
Conditions: extract of human colon carcinoma cell line Caco-2 as DPP IV source; AFC substrate 100 μM; 60 minutes at ambient temperature; 11-point curves; read-out: DPP IV inhibition IC50
Protocol: The differentiation of the cells in order to induce the DPP-IV expression was carried out in accordance with the description by Reiher et al. in an article entitled “Increased expression of intestinal cell line Caco-2” that appeared in Proc. Natl. Acad. Sci. Vol. 90, pp. 5757-5761 (1993). The cell extract was obtained from cells solubilized in a buffer (10 mM Tris HCl, 0.15 M NaCl, 0.04 t.i.u. aprotinin, 0.5% Nonidet-P40, pH 8.0) by centrifugation at 35,000 g for 30 minutes at 4° C. (to remove cell debris).
The DPP-IV assay was carried out as follows:
50 μl of substrate solution (AFC; AFC is amido-4-trifluoromethylcoumarin), final concentration 100 μM, was placed in black microtitre plates. 20 μl of assay buffer (final concentrations 50 mM Tris HCl pH 7.8, 50 mM NaCl, 1% DMSO) was pipetted therein. The reaction was started by the addition of 30 μl of solubilized Caco-2 protein (final concentration 0.14 μg of protein per well). The test substances under investigation were typically added prediluted to 20 μl, while the volume of assay buffer was then reduced accordingly. The reaction was carried out at ambient temperature, the incubation period was 60 minutes. Then the fluorescence was measured in a Victor 1420 Multilabel Counter, with the excitation wavelength at 405 nm and the emission wavelength at 535 nm. Dummy values (corresponding to 0% activity) were obtained in mixtures with no Caco-2 protein (volume replaced by assay buffer), control values (corresponding to 100% activity) were obtained in mixtures without any added substance. The potency of the test substances in question, expressed as IC50 values, were calculated from dosage/activity curves consisting of 11 measured points in each case.

SMILES | IC50
CC#CCn1c(N2CCC[C@@H](N)C2)nc2c1c(=O)n(Cc1nc(C)c3ccccc3n1)c(=O)n2C1CC1 [1(1), 1-[(4-methyl-quinazolin-2-yl)methyl]-3-cyclopropyl-7-(2-butyn-1-yl)-8-((R)-3-amino-piperidin-1-yl)-xanthine] | 2.7 nM
CC#CCn1c(N2CCC[C@@H](N)C2)nc2c1c(=O)n(CC(=O)c1cccc(OC)c1)c(=O)n2-c1ccccc1 [1(10), 1-[2-(3-methoxy-phenyl)-2-oxo-ethyl]-3-phenyl-7-(2-butyn-1-yl)-8-((R)-3-amino-piperidin-1-yl)-xanthine] | 8.1 nM
CC#CCn1c(N2CCC[C@@H](N)C2)nc2c1c(=O)n(Cc1nc(C)c3ccccc3n1)c(=O)n2-c1ccccc1 [Example 1(8), 1-[(4-methyl-quinazolin-2-yl)methyl]-3-phenyl-7-(2-butyn-1-yl)-8-((R)-3-amino-piperidin-1-yl)-xanthine] | 4.9 nM
CC#CCn1c(N2CCC[C@@H](N)C2)nc2c1c(=O)n(Cc1ccc3ncccc3n1)c(=O)n2-c1ccccc1 [1(13), 1-[([1,5]naphthyridin-2-yl)methyl]-3-phenyl-7-(2-butyn-1-yl)-8-((R)-3-amino-piperidin-1-yl)-xanthine] | 4 nM
CC#CCn1c(N2CCC[C@@H](N)C2)nc2c1c(=O)n(CC(=O)c1cccc3oc(=O)n(C)c13)c(=O)n2C1CC1 [Example 1, 1-[2-(3-Methyl-2-oxo-2,3-dihydro-benzoxazol-4-yl)-2-oxo-ethyl]-3-cyclopropyl-7-(2-butyn-1-yl)-8-((R)-3-amino-piperidin-1-yl)-xanthine] | 3.6 nM

Tested on: not listed separately
Assay: Tolerability in rats after oral administration
Format: in vivo
Conditions: oral administration of 10 mg/kg

SMILES | toxic side effects / tolerability
CC#CCn1c(N2CCC[C@@H](N)C2)nc2c1c(=O)n(Cc1nc(C)c3ccccc3n1)c(=O)n2-c1ccccc1 [Example 1(8), 1-[(4-methyl-quinazolin-2-yl)methyl]-3-phenyl-7-(2-butyn-1-yl)-8-((R)-3-amino-piperidin-1-yl)-xanthine] | no toxic side effects could be detected
